{
  "source": "patent US10160762B2",
  "about": "“6-alkyl dihydropyrazolopyrimidinone compounds as PDE2 inhibitors” (Merck Sharp & Dohme Corp., priority 2015, dated 2018)",
  "data": [
    {"biological_target": "T1, human PDE2A1 (Homo sapiens, UniProt O00408)", "T1 construct": "GST; purchased BPS Bioscience (San Diego, Calif.) 60020; host or cells: insect cells", "T1 sequence (O00408 1-920 isoform O00408-2)": "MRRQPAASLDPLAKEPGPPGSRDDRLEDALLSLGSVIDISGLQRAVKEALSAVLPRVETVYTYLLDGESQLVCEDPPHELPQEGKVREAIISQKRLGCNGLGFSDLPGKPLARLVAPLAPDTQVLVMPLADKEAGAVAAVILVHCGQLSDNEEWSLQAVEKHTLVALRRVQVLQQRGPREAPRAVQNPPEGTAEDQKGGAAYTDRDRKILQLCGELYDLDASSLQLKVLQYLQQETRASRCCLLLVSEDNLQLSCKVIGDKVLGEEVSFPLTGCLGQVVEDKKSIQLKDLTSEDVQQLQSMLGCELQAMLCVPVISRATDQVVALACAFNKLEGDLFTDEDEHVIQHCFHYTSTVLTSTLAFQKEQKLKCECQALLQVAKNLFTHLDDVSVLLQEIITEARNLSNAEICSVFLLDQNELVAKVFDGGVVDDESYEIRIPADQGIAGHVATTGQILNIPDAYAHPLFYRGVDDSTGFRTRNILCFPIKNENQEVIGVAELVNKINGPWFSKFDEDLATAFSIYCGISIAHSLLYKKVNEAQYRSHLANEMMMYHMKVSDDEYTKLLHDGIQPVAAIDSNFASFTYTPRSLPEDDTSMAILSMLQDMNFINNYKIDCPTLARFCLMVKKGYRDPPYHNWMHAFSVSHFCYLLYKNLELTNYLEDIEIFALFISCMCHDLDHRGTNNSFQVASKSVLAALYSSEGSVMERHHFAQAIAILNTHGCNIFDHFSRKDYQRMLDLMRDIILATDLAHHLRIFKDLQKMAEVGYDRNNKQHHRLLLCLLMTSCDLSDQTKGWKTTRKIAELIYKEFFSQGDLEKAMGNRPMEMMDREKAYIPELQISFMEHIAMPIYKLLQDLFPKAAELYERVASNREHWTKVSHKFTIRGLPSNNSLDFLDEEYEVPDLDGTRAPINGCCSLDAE", "experiment": "IMAP FP PDE assay, human PDE2A1", "format": "biochemical", "conditions": "Lab B; read-out: Human PDE2 Ki (nM) Lab B", "protocol": "Selectivity for PDE2, as compared to other PDE families, was assessed using the IMAP® technology. Human PDE10A2 enzyme was prepared from cytosolic fractions of transiently transfected HEK cells. All other PDE's were GST Tag human enzyme expressed in insect cells and were obtained from BPS Bioscience (San Diego, Calif.): PDE1A (Cat#60010), human PDE2A1 (Cat#60020), PDE3A (Cat#60030), PDE4A1A (Cat#60040), PDE5A1 (Cat#60050), PDE6C (Cat#60060), PDE7A (Cat#60070), PDE8A1 (Cat#60080), PDE9A2 (Cat#60090), PDE11A4 (Cat#60110).\nAssays for PDE 1 through 11 were performed in parallel at room temperature in 384-well microtiter plates with an incubation volume of 20.2 μL. Solutions of test compounds were prepared in DMSO and serially diluted with DMSO to yield 30 μL of each of ten solutions differing by 3-fold in concentration, at 32 serial dilutions per plate. […] A Labcyte POD 810 (Labcyte, Sunnyvale, Calif.) was used to dispense 200 nL from each well of the titration plate to make eleven copies of the assay plate for each titration, one copy for each PDE enzyme. A solution of each enzyme (dilution from aliquots, sufficient to produce 20% substrate conversion) and a separate solution of FAM-labeled cAMP or FAM-labeled cGMP from Molecular Devices (Sunnyvale, Calif., product # R7506 or cGMP#R7508), at a final concentration of 50 nM were made in the assay buffer (10 mM Tris HCl, pH 7.2, 10 mM MgCl2, 0.05% NaN3 0.01% Tween-20, and 1 mM DTT). Note that the substrate for PDE2 is 50 nM FAM cAMP containing 1000 nM of cGMP. The enzyme and the substrate were then added to the assay plates in two consecutive additions of 10 μL and then shaken to mix. The reaction was allowed to proceed at room temperature for 60 minutes. A binding solution was then made from the kit components, comprised of 80% Solution A, 20% Solution B and binding reagent at a volume of 1/600 the total binding solution. The enzymatic reaction was stopped by addition of 60 μL of the binding solution to each well of the assay plate. The plates were sealed and shaken for 10 seconds. The plates were incubated at room temperature for one hour, then the parallel and perpendicular fluorescence was measured using a Tecan Genios Pro plate reader (Tecan, Switzerland). The apparent inhibition constants for the compounds against all 11 PDE's was determined from the parallel and perpendicular fluorescent readings as described for PDE10 FP assay using the following apparent KM values for each enzyme and substrate combination: PDE1A (FAM cGMP) 70 nM, human PDE2A1 (FAM cAMP) 10,000 nM, PDE3A (FAM cAMP) 50 nM, PDE4A1A (FAM cAMP) 1500 nM, PDE5A1 (FAM cGMP) 400 nM, PDE6C (FAM cGMP) 700 nM, PDE7A (FAM cAMP) 150 nM, PDE8A1 (FAM cAMP) 50 nM, PDE9A2 (FAM cGMP) 60 nM, PDE10A2 (FAM cAMP) 150 nM, PDE11A4 (FAM cAMP) 1000 nM. The intrinsic PDE2 inhibitory activity of a compound which may be used in accordance with the present invention may be determined by these assays.", "units": {"Ki": "nM"}, "values": [
      {"smiles": "Cc1nc2c(c(C3CCCO3)nn2C(C)c2ccc(C(F)(F)F)cc2)c(=O)[nH]1", "note": "(single isomer, unassigned) [Example 73, (S, S)- or (S, R)- or (R, R)- or (R, S)-6-Methyl-3-(-tetrahydrofuran-2-yl)-1-(-l-(4-(trifluoromethyl)phenyl)ethyl)-1H-pyrazolo[3,4-d]pyrimidin-4(5H)-one]", "Ki": 423},
      {"smiles": "Cc1nc2c(c(-c3ccco3)nn2C(C)c2ccc(C(F)(F)F)cc2)c(=O)[nH]1", "note": "(single isomer, unassigned) [Example 74, (R)- or (S)-3-(Furan-2-yl)-6-methyl-1-(1-(4-(trifluoromethyl)phenyl)ethyl)-1H-pyrazolo[3,4-d]pyrimidin-4(5H)-one]", "Ki": 258},
      {"smiles": "Cc1nc2c(c(-c3ccco3)nn2C(C)c2ccc(C(F)(F)F)cc2)c(=O)[nH]1", "note": "(single isomer, unassigned) [Example 75, (S)- or (R)-3-(Furan-2-yl)-6-methyl-1-(1-(4-(trifluoromethyl)phenyl)ethyl)-1H-pyrazolo[3,4-d]pyrimidin-4(5H)-one]", "Ki": 203},
      {"smiles": "Cc1nc2c(c(CO)nn2C(C)c2ccc(C3(C(F)(F)F)CC3)cc2)c(=O)[nH]1", "note": "(single isomer, unassigned) [Example 80]", "Ki": 624},
      {"smiles": "Cc1nc2c(c(CO)nn2C(C)c2ccc(C3(C(F)(F)F)CC3)cc2)c(=O)[nH]1", "note": "(single isomer, unassigned) [Example 81]", "Ki": 7.7},
      {"smiles": "Cc1nc2c(c(CO)nn2C(CC(F)(F)F)c2ccc(C(F)(F)F)cc2)c(=O)[nH]1", "note": "(single isomer, unassigned) [Example 96, (R)- or (S)-3-(Hydroxymethyl)-6-methyl-1-(3,3,3-trifluoro-1-(4-(trifluoromethyl)phenyl)propyl)-1H-pyrazolo[3,4-d]pyrimidin-4(5H)-one]", "Ki": 16},
      {"smiles": "Cc1nc2c(c(CO)nn2C(CC(F)(F)F)c2ccc(C(F)(F)F)cc2)c(=O)[nH]1", "note": "(single isomer, unassigned) [Example 97, (S)- or (R)-3-(Hydroxymethyl)-6-methyl-1-(3,3,3-trifluoro-1-(4-(trifluoromethyl)phenyl)propyl)-1H-pyrazolo[3,4-d]pyrimidin-4(5H)-one]", "Ki": 467},
      {"smiles": "Cc1nc2c(c(CO)nn2C(C)c2ccc(C(F)(F)C(F)(F)F)cc2)c(=O)[nH]1", "note": "(single isomer, unassigned) [Example 98, (R)- or (S)-3-(Hydroxymethyl)-6-methyl-1-(1-(4-(perfluoroethyl)phenyl)ethyl)-1H-pyrazolo[3,4-d]pyrimidin-4(5H)-one]", "Ki": 591},
      {"smiles": "Cc1nc2c(c(CO)nn2C(C)c2ccc(C(F)(F)C(F)(F)F)cc2)c(=O)[nH]1", "note": "(single isomer, unassigned) [Example 99, (S)- or (R)-3-(Hydroxymethyl)-6-methyl-1-(1-(4-(perfluoroethyl)phenyl)ethyl)-1H-pyrazolo[3,4-d]pyrimidin-4(5H)-one]", "Ki": 4.5},
      {"smiles": "COCC(c1ccc(C(F)(F)F)cc1)n1nc(CO)c2c(=O)[nH]c(C)nc21", "note": "(single isomer, unassigned) [Example 100, (R)- or (S)-3-(Hydroxymethyl)-1-(2-methoxy-1-(4-(trifluoromethyl)phenyl)ethyl)-6-methyl-1H-pyrazolo[3,4-d]pyrimidin-4(5H)-one]", "Ki": "~1670"},
      {"smiles": "COCC(c1ccc(C(F)(F)F)cc1)n1nc(CO)c2c(=O)[nH]c(C)nc21", "note": "(single isomer, unassigned) [Example 101, (S)- or (R)-3-(Hydroxymethyl)-1-(2-methoxy-1-(4-(trifluoromethyl)phenyl)ethyl)-6-methyl-1H-pyrazolo[3,4-d]pyrimidin-4(5H)-one]", "Ki": 13},
      {"smiles": "Cc1nc2c(c(CO)nn2C2CCc3cc(C(F)(F)F)ccc32)c(=O)[nH]1", "note": "(single isomer, unassigned) [Example 102, (R)- or (S)-3-(Hydroxymethyl)-6-methyl-1-(5-(trifluoromethyl)-2,3-dihydro-1H-inden-1-yl)-1H-pyrazolo[3,4-d]pyrimidin-4(5H)-one]", "Ki": "> 2960"},
      {"smiles": "Cc1nc2c(c(CO)nn2C2CCc3cc(C(F)(F)F)ccc32)c(=O)[nH]1", "note": "(single isomer, unassigned) [Example 103, (S)- or (R)-3-(Hydroxymethyl)-6-methyl-1-(5-(trifluoromethyl)-2,3-dihydro-1H-inden-1-yl)-1H-pyrazolo[3,4-d]pyrimidin-4(5H)-one]", "Ki": 19},
      {"smiles": "Cc1nc2c(c(CO)nn2C(C)c2ccc(OC(F)(F)F)cc2F)c(=O)[nH]1", "note": "(single isomer, unassigned) [Example 104, (R)- or (S)-1-(1-(2-Fluoro-4-(trifluoromethoxy)phenyl)ethyl)-3-(hydroxymethyl)-6-methyl-1H-pyrazolo[3,4-d]pyrimidin-4(5H)-one]", "Ki": 162},
      {"smiles": "Cc1nc2c(c(CO)nn2C(C)c2ccc(OC(F)(F)F)cc2F)c(=O)[nH]1", "note": "(single isomer, unassigned) [Example 105, (S)- or (R)-1-(1-(2-Fluoro-4-(trifluoromethoxy)phenyl)ethyl)-3-(hydroxymethyl)-6-methyl-1H-pyrazolo[3,4-d]pyrimidin-4(5H)-one]", "Ki": 1.9},
      {"smiles": "Cc1nc2c(c(CO)nn2C(C)c2ccc(C(F)(F)F)c(C)c2)c(=O)[nH]1", "note": "(single isomer, unassigned) [Example 106, (R)- or (S)-3-(Hydroxymethyl)-6-methyl-1-(1-(3-methyl-4-(trifluoromethyl)phenyl)ethyl)-1H-pyrazolo[3,4-d]pyrimidin-4(5H)-one]", "Ki": 633},
      {"smiles": "Cc1nc2c(c(CO)nn2C(C)c2ccc(C(F)(F)F)c(C)c2)c(=O)[nH]1", "note": "(single isomer, unassigned) [Example 107, (S)- or (R)-3-(Hydroxymethyl)-6-methyl-1-(1-(3-methyl-4-(trifluoromethyl)phenyl)ethyl)-1H-pyrazolo[3,4-d]pyrimidin-4(5H)-one]", "Ki": 4.5},
      {"smiles": "Cc1nc2c(c(CO)nn2C(C)c2ccc(C(F)(F)F)cc2C)c(=O)[nH]1", "note": "(single isomer, unassigned) [Example 108, (R)- or (S)-3-(Hydroxymethyl)-6-methyl-1-(1-(2-methyl-4-(trifluoromethyl)phenyl)ethyl)-1H-pyrazolo[3,4-d]pyrimidin-4(5H)-one]", "Ki": "~1280"},
      {"smiles": "Cc1nc2c(c(CO)nn2C(C)c2ccc(C(F)(F)F)cc2C)c(=O)[nH]1", "note": "(single isomer, unassigned) [Example 109, (S)- or (R)-3-(Hydroxymethyl)-6-methyl-1-(1-(2-methyl-4-(trifluoromethyl)phenyl)ethyl)-1H-pyrazolo[3,4-d]pyrimidin-4(5H)-one]", "Ki": 1.9},
      {"smiles": "Cc1nc2c(c(CO)nn2C(C)c2ccc(C(F)F)cc2)c(=O)[nH]1", "note": "(single isomer, unassigned) [Example 110, (R)- or (S)-1-(1-(4-(Difluoromethyl)phenyl)ethyl)-3-(hydroxymethyl)-6-methyl-1H-pyrazolo[3,4-d]pyrimidin-4(5H)-one]", "Ki": 1070},
      {"smiles": "Cc1nc2c(c(CO)nn2C(C)c2ccc(C(F)F)cc2)c(=O)[nH]1", "note": "(single isomer, unassigned) [Example 111, (S)- or (R)-1-(1-(4-(Difluoromethyl)phenyl)ethyl)-3-(hydroxymethyl)-6-methyl-1H-pyrazolo[3,4-d]pyrimidin-4(5H)-one]", "Ki": 3.2},
      {"smiles": "Cc1nc2c(c(CO)nn2C(C)c2ccc(OC(F)F)c(F)c2)c(=O)[nH]1", "note": "(single isomer, unassigned) [Example 112, (R)- or (S)-1-(1-(4-(Difluoromethoxy)-3-fluorophenyl)ethyl)-3-(hydroxymethyl)-6-methyl-1H-pyrazolo[3,4-d]pyrimidin-4(5H)-one]", "Ki": 88}
    ]}
  ]
}
